Measurements from PubChem BioAssay AID2060882 (Molecular Pharmacology Branch, DTP, NCI, 2025).
Values joined by “and” are separate entries in the source; they are usually repeats but may differ in a detail not shown here. Equal values may be shown once.

Tested on: 898857-211-R-J1-PDC complex spheroids, growth % test/control
Assay: Anticancer human tumor 898857-211-R-J1-PDC patient-derived melanoma cell line growth inhibition [RAS]
Settings: for viability, T/C: stronger effect = lower value
From the text: RAS pathway inhibitors in Combinations in Complex Spheroids
A high-throughput screen of multi-cell type tumor spheroids was designed to identify active combinations of RAS pathway inhibitors and targeted small molecules. Complex spheroids include a stromal component modeled by human endothelial cells (HUVEC) and fibroblasts modeled by human mesenchymal stem cells (MSCs). The concentration ranges selected for each drug and investigational agent were based upon clinically achievable concentrations if the clinical Cmax of the agent was known.
Compounds. The drugs and investigational agents: abemaciclib (NSC768073), cobimetinib (NSC768068), divarasib (GDC6063, NSC841802), docetaxel (NSC628503), GDC-1971 (RLY-1971, NSC841576), gemcitabine (NSC613327), inavolisib (NSC800729), ipatasertib (NSC767898), KB-0742 (NSC834161), MRTX-1133 (NSC836407), osimertinib (NSC779217), RMC-4630 (NSC839698), RMC-6236 (NSC851965), RMC-6291 (NSC852671), Ro-3306 (NSC812927), sapanisertib (NSC764658), SN-38 (NSC673596), staurosporine (NSC755774), SY5609 (NSC837396), and tovorafenib (DAY101, NSC766906), were obtained from the National Cancer Institute (NCI) Developmental Therapeutics Program Chemical Repository. The FDA-approved anticancer drug set is available from the NCI Developmental Therapeutics Program. […] The stock solutions were prepared in dimethyl sulfoxide (DMSO, Sigma-Aldrich, St. Louis, MO, cat. D2650) at 800-fold the tested concentration and stored at -70 degrees C prior to their use. All drugs and investigational agents were tested over a range starting from a high concentration at or near the clinical Cmax and decreasing in half-log increments. If the clinical Cmax for an agent had not been determined, the highest concentration tested was 10 microM.
Cell Culture. All cells were maintained in an incubator at 37 degrees C and 5% CO2 with 95% humidity. The PDC lines were cultured according to standard operating procedures established by the NCI PDMR. All PDCs were thawed and cultured in Matrigel-coated flasks prepared with a working solution of 1X Ham's F-12 nutrient mix, without supplementation (Invitrogen, Waltham, MA, cat. 11765054), 100 U/mL penicillin-streptomycin (Invitrogen, cat. 15140122), and 2.5% Matrigel (Corning Inc., Corning, NY, cat. 354248) for the first three passages. The 362531-283-R-J2-PDC and 782815-120-R-J1-PDC lines were cultured in 6C/Colon 1B media, which includes advanced DMEM/F-12 (Thermo Fisher Scientific, cat. 12634028), 10 mM HEPES (Thermo Fisher Scientific, cat. 15630080), 1X GlutaMAX supplement (Thermo Fisher Scientific, cat. 35050061), 0.1 mg/mL primocin (InvivoGen, San Diego, CA, cat. ant-pm-2), 10% defined fetal bovine serum, heat inactivated (HyClone Laboratories Inc., Logan, UT, cat. SH30070.03HI), 50% L-WRN conditioned media (ATCC, cat. CRL-3276), 1.25 mM N-Acetyl-L-cysteine (Sigma-Aldrich, cat. A9165), 10 mM nicotinamide (Sigma-Aldrich, cat. N0636), 1X B-27 supplement (Thermo Fisher Scientific, cat. 17504044), 1X N-2 supplement (Thermo Fisher Scientific, cat. 17502048), 50 ng/mL human EGF (Thermo Fisher Scientific, cat. PHG0311), and 10 microM Y-27632 dihydrochloride (Tocris Bioscience, cat. 1254). The K12877-001-R-J1-PDC line was cultured in 6I media, which includes all 6C/Colon 1B media plus 10 ng/mL human FGF-10 (PeproTech, cat. 100-26), 1 ng/mL human FGF-2 (PeproTech, cat. 100-18B), 1 µM prostaglandin E2 (Tocris Bioscience, cat. 2296), […] hydrocortisone (Sigma-Aldrich, cat. H4001), and […] bovine insulin (Sigma-Aldrich, cat. I6634). The K86415-001-R-J1-PDC line was cultured in 6D media, which includes all 6C/Colon 1B media components minus the L-WRN conditioned media. The 485176-168-R4-J1-PDC was cultured in PANC media, which includes all 6C/Colon 1B media plus 100 ng/mL human FGF-10 (PeproTech, cat. 100-26), 500 nM SB-431542 (Selleckchem, cat. S1067), and 10 nM gastrin (Tocris Bioscience, cat. 3006). […]
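Also: spheroids exposed to compound for seven days before readout.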
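For viability, T/C in this document: 100% = DMSO vehicle control wells.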

SMILES	IC50 (curve of compound)	IC50 (compound alone, run of 08/26/2024) [nM]	IC50 (compound alone, run of 08/20/2024) [nM]	viability, T/C (compound 0.000316 µM)	viability, T/C (compound 0.001 µM)	viability, T/C (compound 0.00316 µM)	viability, T/C (compound 0.01 µM)	viability, T/C (compound 0.0316 µM)	viability, T/C (compound 0.1 µM)	viability, T/C (compound 0.000949 µM)	viability, T/C (compound 0.003 µM)	viability, T/C (compound 0.00949 µM)	viability, T/C (compound 0.03 µM)	viability, T/C (compound 0.0949 µM)	viability, T/C (compound 0.3 µM)
CC(C)n1nc(-c2ccc3oc(N)nc3c2)c2c(N)ncnc21	28.7 nM [middle of 4 runs]			112% [middle of 4 runs]	95.8% [middle of 4 runs]	96.8% [middle of 4 runs]	73.3% [middle of 4 runs]	48.5% [middle of 4 runs]	20.9% [middle of 4 runs]						
CC1(C)CCC(Nc2ncc(C(F)(F)F)c(-c3c[nH]c4c(P(C)(C)=O)c(C#N)ccc34)n2)CN1 (centres undefined)	4.47 nM and 3.41 nM and 5.16 nM									92.3% and 96.9% and 98.6%	59.9% and 52.9% and 65.2%	31.4% and 26.4% and 32.5%	20.2% and 16.2% and 24.3%	17.3% and 16.8% and 20.4%	18.4% and 16.5% and 20%
CCc1c2c(nc3ccc(O)cc13)-c1cc3c(c(=O)n1C2)COC(=O)[C@]3(O)CC	4.92 nM [middle of 4 runs]									96.5% [middle of 4 runs]	65.1% [middle of 4 runs]	30.4% [middle of 4 runs]	10.2% [middle of 4 runs]	7.84% [middle of 4 runs]	7.49% [middle of 4 runs]

Second part, led by results:

IC50 (curve of compound)	IC50 (compound alone, run of 08/26/2024) [nM]	IC50 (compound alone, run of 08/20/2024) [nM]	SMILES	viability, T/C (compound 0.000316 µM)	viability, T/C (compound 0.001 µM)	viability, T/C (compound 0.00316 µM)	viability, T/C (compound 0.01 µM)	viability, T/C (compound 0.0316 µM)	viability, T/C (compound 0.1 µM)	viability, T/C (compound 0.000949 µM)	viability, T/C (compound 0.003 µM)	viability, T/C (compound 0.00949 µM)	viability, T/C (compound 0.03 µM)	viability, T/C (compound 0.0949 µM)	viability, T/C (compound 0.3 µM)
	> 300		CCn1c(-c2cc(N3CCN(C)CC3)cnc2C(C)OC)c2c3cc(ccc31)-c1csc(n1)CC(NC(=O)C1CC1C)C(=O)N1CCCC(N1)C(=O)OCC(C)(C)C2 (centres undefined)							111% [middle of 8 runs]	109% [middle of 8 runs]	102% [middle of 8 runs]	105% [middle of 8 runs]	96.2% [middle of 8 runs]	100% [middle of 8 runs]
		> 300	CCn1c(-c2cccnc2C(C)OC)c2c3cc(ccc31)N1CCOC(CC(NC(=O)C(C(C)C)N(C)C(=O)C3(F)CCN(C(=O)C#CC(C)(C)N(C)C)CC3)C(=O)N3CCCC(N3)C(=O)OCC(C)(C)C2)C1 (centres undefined)							110% [middle of 6 runs]		112% [middle of 6 runs]	103% [middle of 6 runs]	92.8% [middle of 6 runs]	81.3% [middle of 6 runs]
